Values quoted from earlier work, collected in US9517201B2, “Nanocarrier and nanogel compositions” (RUTGERS, THE STATE UNIVERSITY OF NEW JERSEY, priority 2008, dated 2016).
Counter-ions that a name gives are not always drawn.

solubility of Doxorubicin Hydrochloride in water: ~10000 µg/mL
SMILES: COc1cccc2c1C(=O)c1c(O)c3c(c(O)c1C2=O)C[C@@](O)(C(=O)CO)C[C@@H]3O[C@H]1C[C@H](N)[C@H](O)[C@H](C)O1 [Doxorubicin Hydrochloride, Doxorubicin hydrochloride]
